According to patent US11584748B2, “Spirocyclic compounds” (priority 2018, dated 2023):

Target: hCereblon(M1-L442)_hDDB1(M1-H1140) (Homo sapiens (Human), UniProt Q96SW2)
Assay: Fluorescence direct binding (tryptophan fluorescence titration)
Conditions: 20° C., excitation 280 nm, emission 340 nm, 50 mM Hepes 7.4 200 mM NaCl; read-out: Fluorescence h-Cereblon_DDB1 Mean Kd_EQ
Procedure: Fluorescence Direct Binding Protocol
Determination of the affinities of compounds to protein containing one or more tryptophan is measurable by monitoring the fluorescence emission in direct mode. The measurements, depending on the protein available amounts, were performed either manually in a cuvette on ISS-PCI photon counting spectrofluorometer or automatically in well plates on a fluorescence plate reader device. Fluorescence titrations were performed at 20° C. in the chosen binding assay buffer by using a defined constant protein concentration against ligand concentration variations. Small aliquots of known ligand concentration solubilized in DMSO were added and the fluorescence, excited at 280 nm, was recorded at 340 nm.

hCereblon(M1-L442)_hDDB1(M1-H1140), sequence (Q96SW2 whole entry, looked up): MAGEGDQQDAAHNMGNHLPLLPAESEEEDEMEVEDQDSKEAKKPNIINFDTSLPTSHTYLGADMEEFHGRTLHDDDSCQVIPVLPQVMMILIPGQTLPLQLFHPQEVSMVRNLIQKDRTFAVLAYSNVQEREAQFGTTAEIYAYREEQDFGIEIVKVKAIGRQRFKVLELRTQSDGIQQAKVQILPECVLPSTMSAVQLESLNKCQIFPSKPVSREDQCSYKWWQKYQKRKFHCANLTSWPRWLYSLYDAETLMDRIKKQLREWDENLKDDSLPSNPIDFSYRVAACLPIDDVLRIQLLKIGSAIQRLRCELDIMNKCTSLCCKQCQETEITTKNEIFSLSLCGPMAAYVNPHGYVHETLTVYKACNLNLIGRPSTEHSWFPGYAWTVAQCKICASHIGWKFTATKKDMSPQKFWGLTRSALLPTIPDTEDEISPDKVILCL
hCereblon(M1-L442)_hDDB1(M1-H1140), sequence (Q16531 whole entry partner, looked up): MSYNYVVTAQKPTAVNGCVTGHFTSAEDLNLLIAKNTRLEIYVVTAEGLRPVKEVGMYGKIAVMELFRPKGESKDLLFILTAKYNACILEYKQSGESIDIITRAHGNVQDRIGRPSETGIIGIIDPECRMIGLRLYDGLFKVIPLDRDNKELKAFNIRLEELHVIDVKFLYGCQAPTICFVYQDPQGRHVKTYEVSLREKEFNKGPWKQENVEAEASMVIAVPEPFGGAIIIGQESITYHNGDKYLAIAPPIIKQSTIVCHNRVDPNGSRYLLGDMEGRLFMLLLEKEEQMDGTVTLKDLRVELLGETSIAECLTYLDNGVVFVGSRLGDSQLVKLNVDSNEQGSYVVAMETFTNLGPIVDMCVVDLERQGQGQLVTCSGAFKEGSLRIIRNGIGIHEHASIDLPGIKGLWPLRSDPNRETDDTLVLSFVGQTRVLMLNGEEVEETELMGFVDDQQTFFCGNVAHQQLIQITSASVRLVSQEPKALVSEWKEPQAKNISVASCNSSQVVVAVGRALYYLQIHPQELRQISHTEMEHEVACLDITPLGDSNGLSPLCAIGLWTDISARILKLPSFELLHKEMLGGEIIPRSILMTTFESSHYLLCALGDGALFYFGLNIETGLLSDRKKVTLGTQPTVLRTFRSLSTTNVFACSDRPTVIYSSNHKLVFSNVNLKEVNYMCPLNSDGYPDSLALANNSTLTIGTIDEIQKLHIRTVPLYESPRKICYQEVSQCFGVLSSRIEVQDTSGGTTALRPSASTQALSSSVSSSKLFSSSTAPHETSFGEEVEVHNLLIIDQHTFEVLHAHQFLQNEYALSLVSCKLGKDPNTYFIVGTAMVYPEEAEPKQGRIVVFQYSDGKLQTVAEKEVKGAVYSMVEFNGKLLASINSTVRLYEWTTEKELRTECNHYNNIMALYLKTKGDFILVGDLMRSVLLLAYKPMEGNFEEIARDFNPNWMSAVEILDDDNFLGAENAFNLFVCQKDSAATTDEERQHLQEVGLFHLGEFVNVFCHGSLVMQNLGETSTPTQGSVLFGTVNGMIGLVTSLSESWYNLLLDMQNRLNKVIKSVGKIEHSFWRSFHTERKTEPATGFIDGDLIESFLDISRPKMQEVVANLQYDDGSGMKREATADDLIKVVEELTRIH

CC(=O)N1CCc2cc(C(=O)N3CCC4(CCC(=O)NC4=O)C3)ccc21 (stereo not shown) [Example 52, 2-(1-acetylindoline-5-carbonyl)-2,7-diazaspiro[4.5] decane-6,8-dione]
Kd: 41 nM

O=C1NC(=O)C2(CCN(C(=O)c3cnn4ccccc34)CC2)N1 [Example 67, 8-(pyrazolo[1,5-a]pyridine-3-carbonyl)-1,3,8-triazaspiro[4.5] decane-2,4-dione]
Kd: < 1 nM

COC(=O)c1csc(N2CCC3(CCC(=O)NC3=O)C2)n1 (stereo not shown) [Example 22, methyl 2-(6,8-dioxo-2,7-diazaspiro[4.5]decan-2-yl)thiazole-4-carboxylate]
Kd: 44 nM

O=C1NC(=O)C2(CCN(C(=O)[C@@H]3CCCc4ccccc43)CC2)N1 [Example 59, (R)-8-(1,2,3,4-tetrahydronaphthalene-1-carbonyl)-1,3,8-triazaspiro[4.5]decane-2,4-dione]
Kd: 5 nM

O=C1NC(=O)C2(CCN(C(=O)c3coc4ccccc34)CC2)N1 [Example 66, 8-(benzofuran-3-carbonyl)-1,3,8-triazaspiro[4.5] decane-2,4-dione]
Kd: 1 nM

O=C1CCC2(CCN(C(=O)c3ccc4c(c3)CCN4)C2)C(=O)N1 (stereo not shown) [Example 47, 2-(indoline-5-carbonyl)-2,7-diazaspiro[4.5] decane-6,8-dione]
Kd: 4 nM

O=C1CCC2(CCN(c3ccc4ccccc4n3)C2)C(=O)N1 (stereo not shown) [Example 15, 2-(quinolin-2-yl)-2,7-diazaspiro[4.5] decane-6,8-dione]
Kd: 6 nM
